How the values were obtained:
[1] = tested on: B. thetaiotamicron (ATCC strain 29148); assay: Droplet monoculture growth on different carbon sources in defined medium (MicDrop); format: cell-based, Bacteroides thetaiotaomicron; settings: for growth of the isolate in droplets compared to control defined medium without carbon source: B. theta isolate, defined medium with a single carbon source, endpoint DNA quantity (FIG. 4); for growth in droplets on carbohydrate (growth / no growth): B. thetaiotaomicron ATCC 29148 in microfluidic droplets, consistent with 96-well plates (FIG. 4)
Protocol: By using a defined media, a function of individual bacteria (in this case growth on a substrate of interest) can be determined. Bacteria were isolated from a fecal community of a healthy donor and cultured in defined medium. To identify carbon sources on which an individual isolated bacterium can grow, carbon sources of varying complexity were added individually to the defined media. Growth was measured at the endpoint, and the DNA was extracted, sequenced and quantified by qPCR as provided in Example 2. In this assay, the endpoint growth of an individual bacteria cultured in a defined medium with the addition of one carbon source was compared to the end point growth measurement of the same bacteria in the defined medium with only the addition of water. (FIG. 4). This comparison enables assessing the ability of an individual microbe to use a single carbon source for growth. As an example in FIG. 4, an isolate of the bacterial strain B. thetaiotamicron (ATCC® strain 29148) was cultured in droplets with defined medium containing the carbon source Pullalan, Levan, Lamanarin or no carbon source (control), and growth was compared. (FIG. 4). […] (FIG. 4). […] (FIG. 5).
(A) Microbial communities isolated from human stool samples were examined for carbon consumption in a custom microfluidic screen. Cells were restarted from frozen stock in mGAM (as above) and then minimal medium containing glucose and galactose (SIGMA®) as the sole carbon sources. Following determination of the loading concentration, the cell culture stocks were washed twice by centrifugation and resuspended in 2× minimal medium. Cells were filtered using a 50 μm filter (CELLTRICS®, SYSMEX®) to remove multi-cell clumps. The filtered cells suspension was then added to each sample formulation at the target concentration. Each sample was a 50:50 mixture of 1% carbon solution and 2× minimal medium. To prevent chip fouling, the oil inlet was equipped with 10 μm inline filters (P-276, IDEX®). Droplet generation in the anaerobic chamber was monitored using a bright field microscope (44347, CELESTRON®). Droplet cultures were stored 5 mL polypropylene tubes (352063, FALCON®) with the caps closed in an anaerobic incubator at 37° C. Following the second day of incubation, cultures were moved to a −20° C. freezer for storage prior to DNA extraction. Pre-processing of the droplet data designated samples with qPCR values below the mean no-carbon control as zero growth. Then, relative abundance data was converted to absolute abundance by multiplying each sample by the corresponding qPCR value. The median was then calculated across three replicate samples and matched no-carbon controls were subtracted from each sample. Finally, a growth threshold of 88% of maximum growth was applied, as determined from validation analysis (FIG. 15, Validation of prebiotic utilization assays)
To test whether the MicDrop method could be used to assay bacterial prebiotic metabolism (FIG. 12A), a previously characterized type strain Bacteroides thetaiotaomicron ATCC 29148 was loaded into microfluidic droplets and standard 96-well plates. Consistent with both prior studies and well-plate experiments disclosed herein, B. thetaiotaomicron ATCC 29148 grew in droplets on pullulan and levan, but not on lamanarin or a no carbohydrate control (FIG. 4). […] Using 96-well plate experiments as a reference (FIG. 12B, FIG. 18), the accuracy of the MicDrop prebiotic assay was determined to be 87% (Table 8). […]

[2] = tested on: gut bacteria; assay: Xenobiotic growth screen of gut bacteria for beta-glucuronidases in droplets; format: cell-based, human gut bacteria; settings: defined media, glucose positive control, water negative control (FIG. 6)
Description: Thus, in certain aspects of this disclosure, the methods of the invention can be used to identify or screen bacteria from the gut that can utilize, and thus inactivate, specific xenobiotic compounds. In certain embodiments of this aspect, the methods of the invention can be used to screen gut bacteria for beta-glucuronidases, which are present in bacteria that can inactivate certain man-made therapeutics. […] (FIG. 6). […] Thus, in some embodiments, the present disclosure provides for identification of bacterial taxa that contain putative beta-glucuronidases. Using the method disclosed herein, bacteria are isolated by encapsulation in droplets of defined media with or without a specific xenobiotic. DNA is sampled from the encapsulated droplets at one or more set time points during incubation, and absolute growth is then computed as previously disclosed herein. […] To determine gut bacterial strain response to xenobiotics, gut bacteria were screened for beta-glucuronidases, which are present in bacteria that can inactivate certain man-made therapeutics. […] (FIG. 6). […] Thus, the assay identified bacterial taxa that contain putative beta-glucuronidases. Glucose and water are positive and negative controls, respectively. (FIG. 6).

Compound | growth of the isolate in droplets compared to control defined medium without carbon source [1] | bacterial growth on substrate [2] | growth in droplets on carbohydrate (growth / no growth) [1]
lamanarin | the same or slightly worse |  | 
O=C[C@H](O)[C@@H](O)[C@H](O)[C@H](O)C(=O)O [glucuronic acid] |  | bacterial growth | 
pullulan [Pullalan] | greater growth |  | grew
levan | greater growth |  | grew
O=C(O)[C@H]1O[C@@H](Oc2ccc([N+](=O)[O-])cc2)[C@H](O)[C@@H](O)[C@@H]1O [PNPG, 4-Nitrophenyl-Beta-D-glucuronic acid, reference compound] |  | bacterial growth | 
